Seven compounds from US8350062B2, “Synthesis and anticancer activity of new actin-targeting small-molecule agents” (priority 2009, dated 2013) can be followed below.

Read-outs that look alike come from different tables or passages of the source.

Assay [1] deals with A549 cells. The assay can be described thus: Cell viability assay (CellTiter-Glo), growth inhibition of A549 cells. It counts as cell-based, human. Conditions: 48 h incubation. How it is done:
Cell Viability Assays. All assays were performed using at least three replicate wells for each concentration tested. Original 10-25 mM DMSO stock solution of bistramide A or its analogs was diluted to 100 μM for analogs 4-8, 10 μM for analog 3, 5 μM for analog 2 and 1 μM for bistramide A (1) with F-12K cell culture media supplemented with 10% fetal bovine serum, 100 I.U./ml penicillin, 100 μg/ml streptomycin and 2 mM L-glutamine. Two-fold serial dilutions were performed and used for cell-based assays. A549 cells were grown in 96-well white plates at the density of 1,000 cells per well in 100 μl F-12K cell culture media. Cells were allowed to attach over 24 h and treated with 30 μl of the drug solution and incubated further for 48 h. After incubation, cell viability was determined using luminescence-based commercial kit (CellTiter-Glo, Promega) and luminescence measured using a Wallac Victor 3 plate reader. To measure cell growth inhibition, viability assays were performed twice: at initial time point T0 and after 48 h incubation (T48). Change in the number of viable cells was measured, and GI50 was calculated from sigmoidal plots. For analog 10, growth of A549 and PC3 cells was monitored over 96 h following addition of the drug. 100 μM was the highest concentration tested. At no point did the total DMSO conc. exceed 1%.

Assay [2] has as its target filamentous actin (Oryctolagus cuniculus, UniProt P68135). The assay can be described thus: TIRF microscopy of actin filament severing and depolymerization. Also noted: Actin was purified from rabbit muscle acetone powder; tissue Pel-Freez Biologicals (acetone powder); host or cells: rabbit muscle acetone powder. It counts as biochemical, rabbit. Conditions: for Pointed-end depolymerization rate: standard deviations 0.1-0.3 subunits/s; for Barbed-end depolymerization rate: standard deviations 0.4-0.6 subunits/s; for effect on actin depolymerization: concentrations as high as 200 μM; for severing of actin filaments compared to bistramide A (1): determined at 15 μM. The source says: To gain further insight into the mode of action of bistramide A, we next investigated the interaction of the natural product and its analogs with filamentous actin. […] Similar observations have been reported for several other actin-binding natural products. However, this effect could provide only limited mechanistic information and may primarily reflect the binding of a small molecule to the filaments in close proximity to the dye and quenching of pyrene fluorescence, which could be independent of the rates of actin depolymerization. Some proteins like myosin and Actin Depolymerizing Factor (ADF)/Cofilin are known to do so. Total internal reflection fluorescence (TIRF) microscopy has recently emerged as a powerful tool to investigate actin filament dynamics and its regulation by several actin-binding proteins, as well as latrunculin A, which is […] depolymerizing filamentous actin in vitro. Thus, we decided to employ TIRF microscopy to observe in real time the effects of bistramide-based compounds on actin polymerization in vitro. We believe this is the first instance where TIRF microscopy has been utilized to study the severing of actin filaments by a small molecule. We polymerized G-actin containing 25% of tetramethylrhodamine-functionalized and 10% of biotin-functionalized actin. The resulting actin filaments were immobilized onto the streptavidin-coated glass slides (in a flow cell). Analogs 1-8 were flown through the flow cell and imaged by time-lapse TIRF microscopy.
Total Internal Reflection Fluorescence Microscopy. Actin filament severing was studied using a custom-built total internal reflection fluorescence microscope. Images were collected with a 100×, 1.45 NA objective (Olympus) and an EMCCD camera (iXon, Andor Technologies). Glass flow cell (6 μl volume) was washed with 0.25 mg/ml neutravidin in F-buffer (50 mM KCl, 1 mM MgCl2, 1 mM EGTA, 10 mM imidiazole, 2 mM ATP, 0.2 mM 2-mercaptoethanol, 2 min) and blocked with 1 mg/ml BSA in F-buffer (2 min). Ten microliters of 200 nM Mg^2+-F-actin (10% biotinylated, 25% labeled with maleimide-6-tetramethylrhodamine) in TIRF-buffer (50 mM KCl, 1 mM MgCl2, 1 mM EGTA, 10 mM imidiazole, 2 mM ATP, 4.5 mg/ml glucose, 0.5% 2-mercaptoethanol, 4.3 mg/ml glucose oxidase, 0.7 mg/ml catalase) was added to the flowcell and incubated for 2 min. The chamber was rinsed with TIRF-buffer and imaged. Compounds were freshly diluted from their DMSO stock solutions in TIRF-buffer and were added to the chamber immediately after the start of each experiment. Images were collected at 0.2-s exposures every 3 s for 200 frames. For kinetics studies, movies of suitable length were obtained for each of the analog concentrations. Analysis was performed using ImageJ.

Assay [3] concerns the target T1, G-actin (Oryctolagus cuniculus, UniProt P68135).
T1 construct: Actin was purified from rabbit muscle acetone powder; tissue Pel-Freez Biologicals (acetone powder); host or cells: rabbit muscle acetone powder
The assay can be described thus: Isothermal titration calorimetry, binding to monomeric actin. Also noted: species or system rabbit. Particulars: for Kd: isothermal titration calorimetry, 25° C. As to the method:
Isothermal Titration Calorimetry. A solution of rabbit skeletal muscle actin (5-10 μM) was titrated with bistramide A or its analog (50-100 μM) at 25° C. in buffer containing 2 mM Tris HCl, pH 8.0, 0.2 mM CaCl2, 0.01% NaN3, 0.2 mM ATP, 0.2 mM 2-mercaptoethanol. Dissociation constants were calculated from the binding curve using Origin analytical software (OriginLab) with the binding model involving a single set of identical sites

Assay [4] relates to F-actin in A549 cells. The assay can be described thus: Fluorescent visualization of F-actin in A549 cells (Alexa Fluor 488 phalloidin). In kind it is cell-based, human. Particulars: for actin depolymerization in A549 cells: 100 μM, 2 h; for concentration inducing actin depolymerization in A549 cells: 2 h incubation. How it is done:
The presence of the enone increased the severing efficiency of the analogs three-fold. […] We determined whether it was the depletion of actin filaments by analogs 2-5 which was responsible for the growth inhibition of A549 cells. Each of the compounds was incubated with A549 cells for 2 h at a concentration that exceeded the GI50 value by a factor of 5. The cells were then fixed, permeabilized and filamentous actin was visualized by fluorescence microscopy following Alexa Fluor 488 phalloidin staining. […] They induced depolymerization at 150 nM for bistramide A (1), 500 nM for analog 2 and 2 μM for analog 3. Analogs 4 and 5 induced depolymerization of actin only at concentrations as high as 100 μM. […] This observation was consistent with the enhanced cell-based activity of the compounds containing the C(1)-C(4) enone moiety.
Fluorescent Visualization Of F-Actin In Cells. A549 cells grown on coverslips were incubated with analogs 4-8 (100 μM) analog 3 (2 μM) or analog 2 (500 nM) or bistramide A (150 nM) in F-12K cell culture medium for 2 h, fixed with 3% formaldehyde in PBS at 25° C. for 5 min and permeabilized with 0.1% Triton X-100 at 25° C. for 10 min. After washing with PBS, coverslips were stained with Alexa Fluor 488 Phalloidin and visualized by fluorescence microscopy.

The target in assay [5] is T1, G-actin. The assay can be described thus: Interaction with actin by MALDI-TOF (covalent modification). Particulars: 1:1 actin-drug complex, 30 min. It counts as biochemical, rabbit. How it is done:
Interaction Of Bistramide-Based Compounds With Actin By MALDI-TOF. A 1:1 actin-drug complex was incubated for 30 min in 2 mM Tris-HCl, pH 8.0, 0.2 mM CaCl2, 0.01% NaN3, 0.2 mM ATP, 1 mM 2-mercaptoethanol, diluted with deionized water to 26 μM and mixed with an equal volume of a solution of 10 mg/ml sinapinic acid in 50% CH3CN— 0.1% TFA. MALDI spectra were obtained on a Voyager-DE PRO biospectrometry workstation.

The mark [6] stands for this setting: Homo sapiens, A549, 48 h, read-out: GI50.
[7] abbreviates: Homo sapiens, A549, 48 h, values of the text, read-out: GI50.

The GI50 is the concentration giving 50% growth inhibition. In general, Kd refers to the concentration at which binding is half-saturated. On to `C=C[C@@H](C)CC[C@@H]1CCC[C@]2(CCC(C)[C@@H](CCCNC(C)=O)O2)O1` (stereo partly drawn) [Analog 7], for which the GI50 entry in assay [1] is “No cell -based activity”. In assay [2] (compound at 200 μM), the “No. of breaks per 100 μm” value stood at 0.2 per 100 μm, the Pointed-end depolymerization rate is 0.32 subunits/s and the Barbed-end depolymerization rate amounted to 1.87 subunits/s. In assay [2], the “effect on actin depolymerization” value is given as “no effect on actin depolymerization”. Further, in assay [3], the “observable activity (actin binding by ITC and inhibition of A549 proliferation)” value was “neither the spiroketal (analog 7) nor the central amide subunit (analog 8) alone displayed any observable activity”; the Kd entry was “No actin binding”. For the same compound, in assay [4], the “actin depolymerization in A549 cells” value was “No depolymerization was observed”.

Consider `C=CCC[C@@H]1CCC[C@]2(CCC[C@@H](CCCNC(=O)[C@@H](C)[C@@H](O)CNC(=O)CC3O[C@H](CC(=O)/C=C/C)CCC3C)O2)O1` (stereo partly drawn) [Analog 3], for which, in assay [1] (setting [6]), the GI50 was 323 nM. In addition, in assay [1] (setting [7]), the GI50 was found to be 323 nM. Further, in assay [5], the “covalent modification of G-actin” value is reported as “covalently modified G-actin”. In addition, the “concentration at which actin filaments were severed” value in assay [2] was found to be 200 µM. Also, in assay [2] (compound at 200 μM), the “No. of breaks per 100 μm” value stood at 13.3 per 100 μm, the Pointed-end depolymerization rate turned out to be 0.57 subunits/s and the Barbed-end depolymerization rate was found to be 1.84 subunits/s. Besides, the Kd in assay [3] (read-out: Kd) turned out to be 1500 nM. In addition, the “concentration inducing actin depolymerization in A549 cells” value in assay [4] is 2 µM.

On to `C=CC[C@@H]1CCCC(CC(=O)NC[C@H](O)[C@H](C)C(=O)NCCC[C@H]2O[C@@]3(CCC[C@@H](CC[C@H](C)C=C)O3)CCC2C)O1` (stereo partly drawn) [Analog 4], for which the GI50 in assay [1] (setting [6]) was 11200 nM. In assay [5], the “covalent modification of G-actin” value was “no cross-linking was observed”. Besides, in assay [2] (compound at 15 μM), the “No. of breaks per 100 μm” value is 16.5 per 100 μm, the Pointed-end depolymerization rate stood at 0.51 subunits/s and the Barbed-end depolymerization rate was determined as 1.92 subunits/s. Moreover, in assay [2], the “severing of actin filaments compared to bistramide A (1)” value (“severing … compared to bistramide A (1)” below) is “severed actin filaments albeit with lesser efficiency”. Further, in assay [3] (read-out: Kd), the Kd is 319 nM. Moreover, the “concentration inducing actin depolymerization in A549 cells” value in assay [4] was 100 µM.

In the case of `C=C[C@@H](C)CC[C@@H]1CCC[C@]2(CCC(C)[C@@H](CCCNC(=O)[C@@H](C)[C@@H](O)CNC(=O)CCOC)O2)O1` (stereo partly drawn) [Analog 5], in assay [1] (setting [6]), the GI50 worked out at 15100 nM. In assay [5], the “covalent modification of G-actin” value is recorded as “no cross-linking was observed”. In assay [2] (compound at 15 μM), the “No. of breaks per 100 μm” value turned out to be 13.0 per 100 μm, the Pointed-end depolymerization rate was 0.55 subunits/s and the Barbed-end depolymerization rate came out at 1.93 subunits/s. In assay [2], the “severing … compared to bistramide A (1)” value is on record as “severed actin filaments albeit with lesser efficiency”. In assay [3] (read-out: Kd), the Kd was determined as 43 nM. Moreover, the “concentration inducing actin depolymerization in A549 cells” value in assay [4] was 100 µM.

Take `C=C[C@@H](C)CC[C@@H]1CCC[C@]2(CCC(C)[C@@H](CCCNC(=O)[C@@H](C)[C@@H](O)CNC(=O)CC3O[C@H](CC(=O)/C=C/C)CCC3C)O2)O1` (stereo partly drawn) [Analog 2]: the GI50 in assay [1] (setting [6]) worked out at 87 nM. Further, in assay [1] (setting [7]), the concentration for 50% growth inhibition (GI50) came out at 87.1 nM. In assay [5], the “covalent modification of G-actin” value is given as “covalently modified G-actin”. Moreover, in assay [2] (compound at 15 μM), the “No. of breaks per 100 μm” value is on record as 41.8 per 100 μm, the Pointed-end depolymerization rate is 0.48 subunits/s and the Barbed-end depolymerization rate is reported as 1.90 subunits/s. Further, the “severing … compared to bistramide A (1)” value in assay [2] is given as “severed actin filaments albeit with lesser efficiency”. Also, in assay [2] (initial rate of severing, 1-15 μM), the “potency at severing filamentous actin relative to analog 4” value is recorded as “at least three times more potent at severing filamentous actin”. For the same compound, the Kd in assay [3] (read-out: Kd) came to 70 nM. The “concentration inducing actin depolymerization in A549 cells” value in assay [4] was 0.5 µM.

As for `C=CCC[C@@H]1CCC[C@]2(CCC[C@@H](CCCNC(=O)[C@@H](C)[C@@H](O)CNC(=O)CCOC)O2)O1` [Analog 6], in assay [1], the GI50 result is “No cell -based activity”. For the same compound, the GI50 in assay [1] (setting [6]) was over 100000 nM. The “covalent modification of G-actin” value in assay [5] is recorded as “no cross-linking was observed”. In assay [2], the “concentration at which actin filaments were severed” value is 200 µM. In assay [2] (compound at 200 μM), the “No. of breaks per 100 μm” value was 3.4 per 100 μm, the Pointed-end depolymerization rate came to 0.41 subunits/s and the Barbed-end depolymerization rate is 2.29 subunits/s. Further, in assay [3] (read-out: Kd), the Kd was found to be 680 nM. Also, the “actin depolymerization in A549 cells” value in assay [4] is “No depolymerization was observed”.

On to `COCCC(=O)NC[C@H](O)[C@H](C)C(=O)NCCCCC(C)C` [Analog 8], for which the GI50 result in assay [1] is recorded as “No cell -based activity”. In assay [2] (compound at 200 μM), the “No. of breaks per 100 μm” value is “None”, the Pointed-end depolymerization rate amounted to 0.21 subunits/s and the Barbed-end depolymerization rate is recorded as 2.15 subunits/s. Further, the “effect on actin depolymerization” value in assay [2] is “no effect on actin depolymerization”. Further, in assay [3], the “observable activity (actin binding by ITC and inhibition of A549 proliferation)” value is reported as “neither the spiroketal (analog 7) nor the central amide subunit (analog 8) alone displayed any observable activity”; the dissociation constant (Kd) result was “No actin binding”. In addition, the “actin depolymerization in A549 cells” value in assay [4] is recorded as “No depolymerization was observed”.
